# From ChEMBL document CHEMBL5214938, “Design, synthesis and biological evaluation of pteridine-7(8H)-one derivatives as potent and selective CDK4/6 inhibitors” (Bioorg Med Chem Lett, 2022)
# Legend:
# [1] = biological target: Cyclin-dependent kinase 2/cyclin E1 (Homo sapiens, UniProt P24941); test: Inhibition of CDK2/cyclin E1 (unknown origin); assay type: protein-complex assay
# [2] = biological target: Cyclin-dependent kinase 4/cyclin D1 (Homo sapiens, UniProt P11802); test: Inhibition of CDK4/cyclin D1 (unknown origin); assay type: protein-complex assay
# HCT-116 [3] = test: Antiproliferative activity against human HCT-116 cells assessed as growth inhibition by CCK-8 assay; assay type: functional, cell-based
# CDK7/Cyclin H/MNAT1 = CDK7/Cyclin H/MNAT1 (Homo sapiens, UniProt P50613); test: Inhibition of CDK7/cyclin H/MAT1 (unknown origin); assay type: protein-complex assay
# MDA-MB-231 [4] = test: Antiproliferative activity against human MDA-MB-231 cells assessed as growth inhibition by CCK-8 assay; assay type: functional, cell-based
# CDK9/cyclin T1 = CDK9/cyclin T1 (Homo sapiens, UniProt P50750); test: Inhibition of CDK9/cyclin T1 (unknown origin); assay type: protein-complex assay
# [5] = Inhibition of CDK1/cyclin B (unknown origin); design: species or system Homo sapiens
# CDK6/cyclin D1 = CDK6/cyclin D1 (Homo sapiens, UniProt Q00534); test: Inhibition of CDK6/cyclin D1 (unknown origin); assay type: protein-complex assay
# A549 = test: Antiproliferative activity against human A549 cells assessed as growth inhibition by CCK-8 assay; assay type: functional, cell-based
# HT-29 [6] = test: Antiproliferative activity against human HT-29 cells assessed as growth inhibition by CCK-8 assay; assay type: functional, cell-based
# HCT-116 [7] = test: Induction of apoptosis in human HCT-116 cells assessed as necrotic cells at 1 uM by flow cytometry (Rvb=1.57%); assay type: functional
# MDA-MB-231 [8] = test: Induction of apoptosis in human MDA-MB-231 cells assessed as viable cells at 5 uM by flow cytometry (Rvb=92.08%); assay type: functional; conditions: read-out: Activity
# HT-29 [9] = test: Induction of apoptosis in human HT-29 cells assessed as necrotic cells at 1 uM by flow cytometry (Rvb=2.35%); assay type: functional
# HCT-116 [10] = test: Induction of apoptosis in human HCT-116 cells assessed as late apoptotic cells at 1 uM by flow cytometry (Rvb=4.92%); assay type: functional
# HT-29 [11] = test: Induction of apoptosis in human HT-29 cells assessed as necrotic cells at 5 uM by flow cytometry (Rvb=2.35%); assay type: functional
# MDA-MB-231 [12] = test: Induction of apoptosis in human MDA-MB-231 cells assessed as early apoptotic cells at 5 uM by flow cytometry (Rvb=2.93%); assay type: functional
# MDA-MB-231 [13] = test: Induction of apoptosis in human MDA-MB-231 cells assessed as late apoptotic cells at 1 uM by flow cytometry (Rvb=0.72%); assay type: functional
# MDA-MB-231 [14] = test: Induction of apoptosis in human MDA-MB-231 cells assessed as early apoptotic cells at 1 uM by flow cytometry (Rvb=2.93%); assay type: functional
# HCT-116 [15] = test: Induction of apoptosis in human HCT-116 cells assessed as viable cells at 1 uM by flow cytometry (Rvb=86.61%); assay type: functional; conditions: read-out: Activity
# HT-29 [16] = test: Induction of apoptosis in human HT-29 cells assessed as late apoptotic cells at 5 uM by flow cytometry (Rvb=5.03%); assay type: functional
# HCT-116 [17] = test: Induction of apoptosis in human HCT-116 cells assessed as viable cells at 5 uM by flow cytometry (Rvb=86.61%); assay type: functional; conditions: read-out: Activity
# HT-29 [18] = test: Induction of apoptosis in human HT-29 cells assessed as early apoptotic cells at 5 uM by flow cytometry (Rvb=8.68%); assay type: functional
# MDA-MB-231 [19] = test: Induction of apoptosis in human MDA-MB-231 cells assessed as necrotic cells at 5 uM by flow cytometry (Rvb=4.37%); assay type: functional
# MDA-MB-231 [20] = test: Induction of apoptosis in human MDA-MB-231 cells assessed as viable cells at 1 uM by flow cytometry (Rvb=92.08%); assay type: functional; conditions: read-out: Activity
# MDA-MB-231 [21] = test: Induction of apoptosis in human MDA-MB-231 cells assessed as necrotic cells at 1 uM by flow cytometry (Rvb=4.37%); assay type: functional
# HT-29 [22] = test: Induction of apoptosis in human HT-29 cells assessed as viable cells at 1 uM by flow cytometry (Rvb=83.94%); assay type: functional; conditions: read-out: Activity
# HT-29 [23] = test: Induction of apoptosis in human HT-29 cells assessed as early apoptotic cells at 1 uM by flow cytometry (Rvb=8.68%); assay type: functional
# HCT-116 [24] = test: Induction of apoptosis in human HCT-116 cells assessed as necrotic cells at 5 uM by flow cytometry (Rvb=1.57%); assay type: functional
# HCT-116 [25] = test: Induction of apoptosis in human HCT-116 cells assessed as late apoptotic cells at 5 uM by flow cytometry (Rvb=4.92%); assay type: functional
# HT-29 [26] = test: Induction of apoptosis in human HT-29 cells assessed as late apoptotic cells at 1 uM by flow cytometry (Rvb=5.03%); assay type: functional
# MDA-MB-231 [27] = test: Induction of apoptosis in human MDA-MB-231 cells assessed as late apoptotic cells at 5 uM by flow cytometry (Rvb=0.72%); assay type: functional
# HCT-116 [28] = test: Induction of apoptosis in human HCT-116 cells assessed as early apoptotic cells at 5 uM by flow cytometry (Rvb=6.90%); assay type: functional
# HT-29 [29] = test: Induction of apoptosis in human HT-29 cells assessed as viable cells at 5 uM by flow cytometry (Rvb=83.94%); assay type: functional; conditions: read-out: Activity
# HCT-116 [30] = test: Induction of apoptosis in human HCT-116 cells assessed as early apoptotic cells at 1 uM by flow cytometry (Rvb=6.90%); assay type: functional
# CDK6/cyclin D1, sequence (P24385 whole entry): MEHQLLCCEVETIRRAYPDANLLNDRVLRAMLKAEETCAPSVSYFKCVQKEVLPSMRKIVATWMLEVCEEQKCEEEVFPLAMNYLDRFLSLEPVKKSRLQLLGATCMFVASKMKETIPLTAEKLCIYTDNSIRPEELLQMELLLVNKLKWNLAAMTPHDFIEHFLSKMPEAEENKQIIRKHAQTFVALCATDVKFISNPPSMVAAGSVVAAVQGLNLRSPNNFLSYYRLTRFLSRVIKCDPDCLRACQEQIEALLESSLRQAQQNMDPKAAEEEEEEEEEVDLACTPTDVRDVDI
# CDK6/cyclin D1, sequence (Q00534 whole entry): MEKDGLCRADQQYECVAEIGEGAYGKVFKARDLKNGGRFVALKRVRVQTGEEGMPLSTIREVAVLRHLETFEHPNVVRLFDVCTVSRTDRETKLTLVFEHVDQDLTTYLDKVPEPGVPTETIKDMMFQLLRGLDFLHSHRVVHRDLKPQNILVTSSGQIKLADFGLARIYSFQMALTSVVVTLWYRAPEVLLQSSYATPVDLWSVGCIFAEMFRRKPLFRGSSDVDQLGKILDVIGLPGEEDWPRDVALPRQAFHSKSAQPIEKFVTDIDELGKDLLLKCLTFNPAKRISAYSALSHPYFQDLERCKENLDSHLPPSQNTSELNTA
# Cyclin-dependent kinase 4/cyclin D1, sequence (P11802 whole entry): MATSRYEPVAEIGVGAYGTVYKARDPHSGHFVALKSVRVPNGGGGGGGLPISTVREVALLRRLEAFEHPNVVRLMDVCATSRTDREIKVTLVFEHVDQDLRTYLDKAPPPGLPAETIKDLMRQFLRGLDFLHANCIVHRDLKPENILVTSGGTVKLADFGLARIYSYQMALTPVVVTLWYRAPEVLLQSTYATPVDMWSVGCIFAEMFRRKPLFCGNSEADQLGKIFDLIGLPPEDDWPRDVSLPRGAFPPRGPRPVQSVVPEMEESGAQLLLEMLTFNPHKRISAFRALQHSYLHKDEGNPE
# Cyclin-dependent kinase 4/cyclin D1, sequence (P24385 whole entry, further chain): as the sequence (P24385 whole entry) above
# CDK9/cyclin T1, sequence (O60563 whole entry): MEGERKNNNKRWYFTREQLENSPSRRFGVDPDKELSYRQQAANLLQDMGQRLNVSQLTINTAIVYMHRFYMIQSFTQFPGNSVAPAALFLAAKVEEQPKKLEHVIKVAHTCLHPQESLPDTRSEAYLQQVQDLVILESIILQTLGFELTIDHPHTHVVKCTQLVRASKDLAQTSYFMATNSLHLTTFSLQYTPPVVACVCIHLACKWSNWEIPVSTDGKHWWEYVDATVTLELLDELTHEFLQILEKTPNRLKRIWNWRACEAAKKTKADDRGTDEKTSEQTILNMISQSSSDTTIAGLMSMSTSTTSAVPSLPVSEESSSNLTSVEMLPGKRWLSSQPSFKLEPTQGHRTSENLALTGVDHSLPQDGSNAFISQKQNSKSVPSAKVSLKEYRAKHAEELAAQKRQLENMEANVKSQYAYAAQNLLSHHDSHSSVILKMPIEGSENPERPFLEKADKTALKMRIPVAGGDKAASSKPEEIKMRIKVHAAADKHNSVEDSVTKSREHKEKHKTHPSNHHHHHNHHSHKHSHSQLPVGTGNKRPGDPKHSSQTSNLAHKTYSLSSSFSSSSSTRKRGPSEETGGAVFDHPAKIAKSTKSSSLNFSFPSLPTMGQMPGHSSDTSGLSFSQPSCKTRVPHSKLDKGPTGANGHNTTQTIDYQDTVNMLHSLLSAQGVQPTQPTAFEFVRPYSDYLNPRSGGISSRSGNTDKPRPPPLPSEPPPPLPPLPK
# CDK9/cyclin T1, sequence (P50750 whole entry): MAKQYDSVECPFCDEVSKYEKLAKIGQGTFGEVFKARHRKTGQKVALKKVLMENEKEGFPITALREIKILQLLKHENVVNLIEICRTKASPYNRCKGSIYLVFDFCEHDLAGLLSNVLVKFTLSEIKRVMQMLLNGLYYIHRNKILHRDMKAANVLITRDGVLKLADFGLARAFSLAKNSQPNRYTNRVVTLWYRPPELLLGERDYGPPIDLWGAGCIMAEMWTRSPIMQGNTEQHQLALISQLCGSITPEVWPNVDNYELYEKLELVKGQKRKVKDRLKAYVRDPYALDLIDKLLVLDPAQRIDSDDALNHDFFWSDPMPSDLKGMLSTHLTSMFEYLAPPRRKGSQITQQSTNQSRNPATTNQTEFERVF
# CDK7/Cyclin H/MNAT1, sequence (P51946 whole entry): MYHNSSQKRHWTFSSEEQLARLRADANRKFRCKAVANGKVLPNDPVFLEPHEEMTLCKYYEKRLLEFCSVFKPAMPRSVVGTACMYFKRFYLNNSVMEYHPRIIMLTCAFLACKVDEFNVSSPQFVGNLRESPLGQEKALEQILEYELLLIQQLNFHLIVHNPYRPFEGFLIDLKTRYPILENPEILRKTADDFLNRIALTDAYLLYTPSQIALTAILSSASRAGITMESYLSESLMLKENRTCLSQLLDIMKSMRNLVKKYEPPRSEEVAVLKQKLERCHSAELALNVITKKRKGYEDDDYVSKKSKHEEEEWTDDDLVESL
# CDK7/Cyclin H/MNAT1, sequence (P50613 whole entry): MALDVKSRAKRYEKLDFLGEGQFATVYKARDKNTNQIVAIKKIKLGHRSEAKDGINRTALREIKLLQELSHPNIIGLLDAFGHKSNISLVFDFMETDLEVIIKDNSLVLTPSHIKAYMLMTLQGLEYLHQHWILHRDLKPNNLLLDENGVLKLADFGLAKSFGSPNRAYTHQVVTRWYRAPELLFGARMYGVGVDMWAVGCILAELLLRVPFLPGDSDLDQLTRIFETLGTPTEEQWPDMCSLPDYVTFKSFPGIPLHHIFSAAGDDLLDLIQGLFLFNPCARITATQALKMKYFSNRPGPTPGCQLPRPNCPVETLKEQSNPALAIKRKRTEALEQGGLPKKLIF
# CDK7/Cyclin H/MNAT1, sequence (P51948 whole entry, further chain): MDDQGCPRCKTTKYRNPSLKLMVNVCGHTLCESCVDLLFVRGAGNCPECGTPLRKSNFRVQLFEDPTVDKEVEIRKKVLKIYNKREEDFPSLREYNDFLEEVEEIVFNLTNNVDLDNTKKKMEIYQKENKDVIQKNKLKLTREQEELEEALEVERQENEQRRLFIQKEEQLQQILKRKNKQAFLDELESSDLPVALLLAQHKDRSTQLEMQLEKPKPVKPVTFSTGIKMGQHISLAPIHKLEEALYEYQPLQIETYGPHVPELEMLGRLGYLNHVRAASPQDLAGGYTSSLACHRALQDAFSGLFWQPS
smiles,measurement,setting,value
CC(=O)c1nc2cnc(Nc3ccc(N4CCN(C)CC4)cc3)nc2n(C2CCCC2)c1=O,IC50,[1],> 10000 nM
same,IC50,[2],36.6 nM
same,IC50,HCT-116 [3],2400 nM
same,IC50,CDK7/Cyclin H/MNAT1,> 10000 nM
same,IC50,MDA-MB-231 [4],2200 nM
same,IC50,CDK9/cyclin T1,> 10000 nM
same,IC50,[5],> 10000 nM
same,IC50,CDK6/cyclin D1,53.4 nM
same,IC50,A549,3600 nM
same,IC50,HT-29 [6],1500 nM
CCN1CCN(c2ccc(Nc3ncc4nc(C(C)=O)c(=O)n(C5CCCC5)c4n3)c(N)c2)CC1,IC50,[2],7890 nM
same,IC50,CDK6/cyclin D1,7080 nM
CCN1CCN(c2ccc(Nc3ncc4nc(-c5ccco5)c(=O)n(C5CCCC5)c4n3)cc2)CC1,IC50,[2],236 nM
same,IC50,CDK6/cyclin D1,940 nM
CC(=O)c1nc2cnc(Nc3ccc(N4CCN(C5CCCC5)CC4)cc3)nc2n(C2CCCC2)c1=O,IC50,[2],36.3 nM
same,IC50,CDK6/cyclin D1,138 nM
CC(=O)c1nc2cnc(Nc3ccc(N4CCCC4)cc3)nc2n(C2CCCC2)c1=O,IC50,[2],368 nM
same,IC50,CDK6/cyclin D1,> 10000 nM
CC(=O)c1nc2cnc(Nc3ccc(N4CCC(N5CCN(C)CC5)CC4)cc3)nc2n(C2CCCC2)c1=O,IC50,[2],30.1 nM
same,IC50,CDK6/cyclin D1,48 nM
CC(=O)c1nc2cnc(Nc3ccc(N4CCCCC4)cc3)nc2n(C2CCCC2)c1=O,IC50,[2],64.9 nM
same,IC50,CDK6/cyclin D1,564 nM
CCN1CCN(c2ccc(Nc3ncc4nc(C(C)=O)c(=O)n(C5CCCC5)c4n3)cc2)CC1,IC50,[1],7940 nM
same,IC50,[2],16.7 nM
same,Activity,HCT-116 [7],0.57%
same,IC50,HCT-116 [3],1900 nM
same,viability at 5 µM,MDA-MB-231 [8],88%
same,Activity,HT-29 [9],1.21%
same,IC50,CDK7/Cyclin H/MNAT1,> 10000 nM
same,Activity,HCT-116 [10],8.42%
same,Activity,HT-29 [11],0.99%
same,IC50,MDA-MB-231 [4],1900 nM
same,Activity,MDA-MB-231 [12],6.67%
same,Activity,MDA-MB-231 [13],0.86%
same,Activity,MDA-MB-231 [14],3.21%
same,viability at 1 µM,HCT-116 [15],81.5%
same,IC50,CDK9/cyclin T1,8040 nM
same,Activity,HT-29 [16],15.42%
same,viability at 5 µM,HCT-116 [17],70.2%
same,Activity,HT-29 [18],14.86%
same,Activity,MDA-MB-231 [19],3.55%
same,viability at 1 µM,MDA-MB-231 [20],91.8%
same,Activity,MDA-MB-231 [21],4.16%
same,IC50,[5],> 10000 nM
same,IC50,CDK6/cyclin D1,30.5 nM
same,viability at 1 µM,HT-29 [22],70.7%
same,Activity,HT-29 [23],15.39%
same,Activity,HCT-116 [24],2.16%
same,Activity,HCT-116 [25],13.39%
same,Activity,HT-29 [26],12.67%
same,Activity,MDA-MB-231 [27],1.75%
same,IC50,A549,9200 nM
same,IC50,HT-29 [6],4000 nM
same,Activity,HCT-116 [28],14.39%
same,viability at 5 µM,HT-29 [29],68.7%
same,Activity,HCT-116 [30],9.54%
CC(=O)c1nc2cnc(Nc3ccc(N4CCOCC4)cc3)nc2n(C2CCCC2)c1=O,IC50,[2],74.4 nM
same,IC50,CDK6/cyclin D1,168 nM
CCN1CCN(c2ccc(Nc3ncc4nc(C(C)=O)c(=O)n(C5CCCC5)c4n3)c(CO)c2)CC1,IC50,[2],110 nM
same,IC50,CDK6/cyclin D1,1210 nM
O=c1c(-c2ccco2)nc2cnc(Nc3ccc(N4CCOCC4)cc3)nc2n1C1CCCC1,IC50,[2],> 10000 nM
same,IC50,CDK6/cyclin D1,> 10000 nM
COc1cc(N2CCN(C)CC2)ccc1Nc1ncc2nc(C(C)=O)c(=O)n(C3CCCC3)c2n1,IC50,[2],4480 nM
same,IC50,CDK6/cyclin D1,4740 nM
CC(=O)c1c(C)c2cnc(Nc3ccc(N4CCNCC4)cn3)nc2n(C2CCCC2)c1=O [PALBOCICLIB],IC50,HCT-116 [3],> 10000 nM
same,IC50,A549,> 10000 nM
same,IC50,HT-29 [6],9300 nM
CN[C@@H]1C[C@H]2O[C@@](C)([C@@H]1OC)n1c3ccccc3c3c4c(c5c6ccccc6n2c5c31)C(=O)NC4 [STAUROSPORINE],IC50,[5],6.6 nM
